Laboratory results: ChEMBL document CHEMBL1201862, “PubChem BioAssay data set” (2004)
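Results reflect a 48-hour exposure of cells in 96-well plates to compound at five concentrations. GI50 = concentration required for 50% inhibition of growth.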 Activity calls are given as the source filed them. Rule as the data show it: active = GI50 up to about 1.1 µM and inactive = higher.

Legend:
Experiment in all cases: DTP human tumour cell line panel, 48 h
[1] = test system: OVCAR-8
[2] = test system: NCI-H522
[3] = test system: UO-31
[4] = test system: HOP-92
[5] = test system: SNB-75
[6] = test system: OVCAR-3
[7] = test system: SK-MEL-5
[8] = test system: U-251
[9] = test system: SK-MEL-2
[10] = test system: NCI-H460
[11] = test system: MOLT-4
[12] = test system: SW-620
[13] = test system: CAKI-1
[14] = test system: TK-10
[15] = test system: SK-OV-3
[16] = test system: Hs-578T
[17] = test system: M14
[18] = test system: T47D
[19] = test system: SK-MEL-28

Row | Compound | GI50 [1] | GI50 [2] | GI50 [3] | GI50 [4] | GI50 [5] | GI50 [6] | GI50 [7] | GI50 [8] | GI50 [9] | GI50 [10] | GI50 [11] | GI50 [12] | GI50 [13] | GI50 [14] | GI50 [15] | GI50 [16] | GI50 [17] | GI50 [18] | GI50 [19]
1 | Oc1nc2c(c(-c3cccc(Cl)c3)n1)COC/C2=C\c1cccc(Cl)c1 | > 100 µM (inactive) | > 100 µM (inactive) | > 100 µM (inactive) | > 100 µM (inactive) | > 100 µM (inactive) | > 100 µM (inactive) | > 100 µM (inactive) | > 100 µM (inactive) | > 100 µM (inactive) | > 100 µM (inactive) | > 100 µM (inactive) | > 100 µM (inactive) | > 100 µM (inactive) | > 100 µM (inactive) | > 100 µM (inactive) | > 100 µM (inactive) | > 100 µM (inactive) | > 100 µM (inactive) | 
2 | CC(=O)OCC1OC(On2ccccc2=S)C(OC(C)=O)C(OC(C)=O)C1OC(C)=O (stereo not drawn) | > 100 µM (inactive) | 49.7 µM (inactive) | > 100 µM (inactive) | > 100 µM (inactive) | > 100 µM (inactive) | > 100 µM (inactive) | > 100 µM (inactive) | > 100 µM (inactive) | > 100 µM (inactive) | > 100 µM (inactive) | 33.9 µM (inactive) | 36.6 µM (inactive) | > 100 µM (inactive) | > 100 µM (inactive) | > 100 µM (inactive) | > 100 µM (inactive) | > 100 µM (inactive) | 87.1 µM (inactive) | > 100 µM (inactive)
3 | O=C(CSc1nc2ccc(I)cc2c(=O)n1Cc1ccccc1)NNC(=S)Nc1ccccc1 | 3.11 µM (inactive) | 4.98 µM (inactive) |  | 11.8 µM (inactive) | > 100 µM (inactive) | 12.9 µM (inactive) | 13.8 µM (inactive) | 6.24 µM (inactive) | 18 µM (inactive) | 5.47 µM (inactive) | 6.08 µM (inactive) | 33.6 µM (inactive) | 3.33 µM (inactive) | 61.8 µM (inactive) | > 100 µM (inactive) | 7.78 µM (inactive) | 62.2 µM (inactive) | 23.5 µM (inactive) | > 100 µM (inactive)
4 | CC1=C(C(=O)N(C(C)C)C(C)C)CC(C(=O)N(C(C)C)C(C)C)=C(C)N1 | > 100 µM (inactive) | > 100 µM (inactive) | > 100 µM (inactive) | > 100 µM (inactive) | 16.4 µM (inactive) | > 100 µM (inactive) | > 100 µM (inactive) | > 100 µM (inactive) | > 100 µM (inactive) | > 100 µM (inactive) | > 100 µM (inactive) | > 100 µM (inactive) | > 100 µM (inactive) | > 100 µM (inactive) | > 100 µM (inactive) | > 100 µM (inactive) | > 100 µM (inactive) | 49.3 µM (inactive) | 
5 | C/C(Cl)=N\OC(=O)Nc1ccc([N+](=O)[O-])cc1 | 15.1 µM (inactive) | 1.99 µM (inactive) | 5.6 µM (inactive) | 2.59 µM (inactive) | 16.7 µM (inactive) | 2.12 µM (inactive) | 17.4 µM (inactive) | 17.6 µM (inactive) | 17.5 µM (inactive) | 18.7 µM (inactive) | 1.92 µM (inactive) | 2 µM (inactive) | 5.21 µM (inactive) | 14.7 µM (inactive) | 13.3 µM (inactive) | 25 µM (inactive) | 12.9 µM (inactive) | 9.48 µM (inactive) | 17.2 µM (inactive)
6 | C[C@]12CC[C@H]3[C@@H](CC[C@]4(O)C[C@@H](O)CC[C@]34/C=N/O)[C@@]1(O)CC[C@@H]2C1=COC(=O)C1 | 0.154 µM (active) | 0.0323 µM (active) | 0.112 µM (active) | 0.2 µM (active) | 0.332 µM (active) | 0.0472 µM (active) | 0.0583 µM (active) | 0.212 µM (active) | 0.255 µM (active) | 0.0403 µM (active) | 0.0272 µM (active) | 0.191 µM (active) | 0.0363 µM (active) | 0.0845 µM (active) | 0.0436 µM (active) | 0.112 µM (active) | 0.289 µM (active) | 0.317 µM (active) | 0.482 µM (active)
7 | Cc1nc(=O)c2cc(CN(C)c3ccc(C(=O)N[C@@H](CCC(=O)O)C(=O)O)s3)ccc2[nH]1 [RALTITREXED] | 0.0883 µM (active) | > 100 µM (inactive) |  | > 100 µM (inactive) | 6.79 µM (inactive) | > 100 µM (inactive) |  | 0.546 µM (active) | > 100 µM (inactive) | 0.041 µM (active) | 0.0977 µM (active) | > 100 µM (inactive) | > 100 µM (inactive) | > 100 µM (inactive) | > 100 µM (inactive) | > 100 µM (inactive) | 0.0931 µM (active) | > 100 µM (inactive) | > 100 µM (inactive)
